We go through 1 molecule from patent US10973850B2, “Composition comprising tricalcium phosphate and gelatin for use in a method for the treatment of dyspepsia and related disorders” (S.B.M. S.R.L., priority 2015, dated 2021).

The nature of this assay: Protective effect: time to perforation of a sheet of wheat starch exposed to concentrated HCl. Particulars: end point a clear-cut hole. As for the experimental part: The barrier-like effect of gelatin was experimentally assessed. A Sheet of wheat starch was exposed to a concentrated solution of HCl. The protective action was measured as an extension of time to perforation in comparison to control. The end consisted of a clear-cut hole.
The new threshold matched the potentially dangerous HCl concentration in the stomach at the above-mentioned ration, corresponding to about 6 parts of gelatin to 1 part of TCP.

Consider `O=P([O-])([O-])[O-].O=P([O-])([O-])[O-].[Ca+2].[Ca+2].[Ca+2]` [TCP, tricalcium phosphate], for which the “protective action, extension of time to perforation in comparison to control” value is listed as “almost equally effective”.
